# Reference: patent US11479570B2, “Pentafluorophosphate derivative, its uses and an appropriate manufacturing method” (FREIE UNIVERSITÄT BERLIN, priority 2017, dated 2022)
# “Also recorded” adds a separate entry of the source. Read-outs that look alike come from different tables or passages of the source.
# What was measured:
# [1] = molecular target: T1, protein tyrosine phosphatase PTP1B (Homo sapiens, UniProt P18031); conditions: data published (literature), cited from earlier work
# T1 sequence (P18031 1-435): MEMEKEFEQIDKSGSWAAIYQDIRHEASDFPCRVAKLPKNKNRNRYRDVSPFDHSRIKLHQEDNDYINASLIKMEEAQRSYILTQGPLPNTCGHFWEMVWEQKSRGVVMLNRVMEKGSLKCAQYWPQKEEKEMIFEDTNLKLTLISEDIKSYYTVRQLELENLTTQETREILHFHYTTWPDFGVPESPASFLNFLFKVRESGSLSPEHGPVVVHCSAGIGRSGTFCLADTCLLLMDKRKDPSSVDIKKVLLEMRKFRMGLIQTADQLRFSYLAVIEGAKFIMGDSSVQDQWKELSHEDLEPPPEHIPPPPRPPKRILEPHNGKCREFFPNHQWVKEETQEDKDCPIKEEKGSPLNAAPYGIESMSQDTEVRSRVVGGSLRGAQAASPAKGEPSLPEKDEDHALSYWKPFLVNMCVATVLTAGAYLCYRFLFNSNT
# [2] = molecular target: T1, protein tyrosine phosphatase PTP1B; assay: PTP1B enzyme assay (detection of chromogenic para-nitrophenolate); assay type: biochemical; conditions: for Ki: detection of the chromogenic para-nitrophenolate at 405 nm, read-out: inhibition constant KI (inhibitory effect on PTP1B in an enzyme assay)
# Source text: (§1) In order to enhance the solubility in aqueous systems and to exclude any interfering effects of the counter ion NMe4^+, compound 13 was transferred into its sodium salt 13-Na.
# During the measurements of the inhibitory effect of 13-Na, inhibitors with known inhibition constants were used in parallel as positive controls in order to verify the reliability of the assay.
# [3] = Stability in aqueous solution by 19F-NMR spectroscopy; assay type: physicochemical; conditions: pH range from 2 to 12 in aqueous solution, D2O, after several hours
# Source text: as §1
# Solubility = assay type: physicochemical; conditions: tetramethylammonium salt
# Source text: The obtained product 14-Na (cf. FIG. 5B) was stable and well soluble in the used biochemical buffer.
# [4] = Lipophilicity from elution properties on RP-HPLC; assay type: physicochemical; conditions: in accordance with elution properties on RP-HPLC
# Protocol: Formation of α,α-difluorobenzyl-penta-P-fluorophosphate 13 was confirmed by HPLC-MS analysis displaying very uncommon elution properties both on C8 and C18 reversed phase silica. While the phosphonic acid 12 eluted at 3.4 min on RP-18 material displaying a symmetric peak and a characteristic UV spectrum, compound 13 interacted strongly with the column material, resulting in elution after 9 min at the very end of the default gradient (5 to 95% ACN in water). Additionally, no absorbance of 13 at 210 nm, 254 nm and 290 nm could be observed. These properties hampered chromatographic purifications like reverse phase MPLC.
molecule,measurement,setting,value
O=P(O)(O)Cc1ccccc1 [Benzyl phosphonic acid],Inhibitory effect on PTP1B in an enzyme assay (in words),[1]; comparative example,No inhibition
"C[N+](C)(C)C.FC(F)(c1ccccc1)[P-](F)(F)(F)(F)F [compound 13, tetramethylammonium (difluoro-(phenyl)-methyl)-penta-P-fluorophosphate]",inhibitory potential towards PTP1B (in words),[2],reversible inhibitor; also recorded: significant affinity
same,Ki,[2],1800 µM
same,stability (degradation or hydrolysis),[3],no degradation or hydrolysis could be observed
same,solubility in acetonitrile versus water,Solubility,more soluble in acetonitrile than in water
same,lipophilicity compared to phosphonate 12,[4],significantly more lipophilic
"C[N+](C)(C)C.FC(F)(c1ccc2ccccc2c1)[P-](F)(F)(F)(F)F [compound 14, tetramethylammonium (difluoro-(naphtha-2-yl)-methyl)-penta-P-fluorophosphate]",Ki,[2],26 µM
Fluorobenzyl phosphonic acid,Ki,"[1]; comparative examples, read-out: Inhibitory effect on PTP1B in an enzyme assay, KI",~5000 µM
